Twelve compounds from PMC8147177, “Bio-Insecticide of Thymus vulgaris and Ocimum basilicum Extract from Cell Suspensions and Their Inhibitory Effect against Serine, Cysteine, and Metalloproteinases of the Red Palm Weevil (Rhynchophorus ferrugineus)” (Insects, 2021) can be followed below.

SMILES strings stand for the structures. ≈ marks a conversion by molar mass, not a printed value.

What all share (assay type): biochemical, Rhynchophorus ferrugineus
Test [1] relates to total proteases of R. ferrugineus midgut. In words: Total proteolytic enzyme activity (azocasein) in 4th instar larval midgut homogenate. The note with it: for Specific activity, Total Proteases: control 25.83 ± 0.45; for IC50 against total proteases: in vitro, midgut of 4th instar larvae. On the procedure:
Protein determination was carried out according to the Lowry method. Total proteolytic enzyme activity using azocasein was assessed in the 4th midgut instars larvae homogenate of R. ferrugineus according to Olga et al., [42] with modifications. The 4th midgut larvae homogenates of lab strain (10 larvae) were pulled out gently, excised, and washed using a saline solution (0.9% (w/v) NaCl) repeatedly and then homogenized using 500 µL of an assay buffer. The midgut instar was homogenized in 500 µL of a protease assay buffer [50 mM HEPS (N-2-hydroxyelthyl piperazin-N′-2-ehtanesulphonic acid), pH 8.0, 5 mM dithiothreitol (DTT) and 0.1% (v/v) Triton X-100]. The reserve homogenates that were obtained from a previous step were centrifuged at 5000× g for 30 min using a Sigma 3k30 cooling centrifuge. The supernatants were used for estimation of the total proteolytic enzyme activity and protein concentration. Ten microliters of supernatant per assay was incubated in a total volume of 60 µL of assay buffer (pH 8) for 20 min at 37 °C before the addition of 200 µL of azocasien (2%, w/v in an assay buffer).
In all cases, enzyme samples of 10 μL, hydro distillate extract from the cell suspension after 40 days, and pure compounds (thymol, estragole, p-cymene, γ-terpinene, linalool, β-terpineol, ocimene, eugenol, 1,8-cineole, β-Caryophyllene, and germacrene D) (50, 100, 500, 1000, and 5000 mg/L) were pre-incubated together for 10 min. Substrate was then added to start the reaction (20 min for Leupeptin). The reaction lasted for 180 min at 37 °C and was then stopped using 300 µL of cold 10% (v/v) trichloroacetic acid (TCA). The reaction mixture was centrifuged at 5000× g for 20 min using the Sigma 3k30 cooling centrifuge. Ten microliters of NaOH (10 N) was added to the supernatant, and absorbency at 450 nm was measured using an ELISA plate reader. An assay mixture without an enzyme was used as a blank, the specific activity of total proteolytic enzymes was calculated as OD450. mg^−1·protein^−1·h^−1, and a blank sample was determined without an enzyme solution.
(§1) Specific protease inhibitors were added to the reactions of proteolytic activity determination assays, and the inhibitors were: PMSF, a general serine proteinase inhibitor; TLCK, a trypsin-like serine proteinase inhibitor; TPCK, a chymotrypsin-like serine proteinase inhibitor; an iodoacetic acid-like cysteine proteinase inhibitor; an EDTA-like metalloproteinase inhibitor; and leupeptin, a general proteinase inhibitor. The 4th midgut larval homogenates of a lab strain were prepared as described above in the assay for enzyme activity determination. The inhibition assay was carried out on a microplate assay as described above. A series of inhibitor concentrations was prepared in order to establish the maximum inhibition by each inhibitor. The leupeptin (0.01, 0.05, 0.1, and 1.0 mM), PMSF (0.1, 1.0, 10, and 50 mM), TLCK and TPCK (0.01, 0.05, 0.1, 1, 50, and 100 mM), EDTA (0.1, 1, 10, 50, and 100 mM), and iodoacetic acid concentrations (0.01, 0.05, 0.1, and 1 mM) were dissolved in the assay buffers.
(§2) To identify the proteases present in the R. ferrugineus 4th midgut larval instar homogenate preparations, different mechanistic class inhibitors were tested. In all protease types, enzyme samples of 10 µL and inhibitors or extracts from the cell suspension after 40 days or pure compounds (thymol, p-cymene, γ-terpinene, β-caryophyllene, linalool, estragole, β-terpineol, ocimene, 1,8-cineole, germacrene D, and eugenol) (1, 10, 50, 100, 500, 1000, and 5000 mg/L) were pre-incubated for 10 min before adding the substrate. An assay mixture without inhibitors was used as control. Absorbance was measured using an ELISA plate reader at different nm according to the type of enzymes. Percent activity of the control for each inhibitor was calculated to each enzyme.

Test [2] has as its system elastase-like proteinase of R. ferrugineus midgut. Put plainly: Elastase-like serine proteinase specific activity assay (SAAPLpNA) in 4th instar midgut homogenate. The conditions noted are these: for Specific activity, Elastase: control 8.23 ± 0.02; for IC50 against elastase: in vitro, midgut of 4th instar larvae. As to the method: (§3) Serine proteinase specific activities were assayed, as described by Olga et al. with modifications, using a rapid microplate assay with synthetic substrates in 150 µL reaction mixtures containing a serine protease assay buffer (100 mM Tris-HCl, pH 8.1). Na-benzoyl-L-arginine ρ-nitroanilide (BAρNA) was evaluated for trypsin-like proteinases, N-succinyl-ala-alapro-leucine ρ-nitroanilide (SAAPLρNA) for elastase-like proteinases, and N-succinyl-ala-ala-pro-phenylalanine ρ-nitroanilide (SAAPFρNA) for chymotrypsin-like proteinases.
(§4) The 4th instar midguts were homogenized with the assay buffer. The homogenates of midguts were centrifuged at 8000× g for 30 min using Sigma 3K 30 rotors No. 12158 (Sigma laboratories centrifuge 3K30). Enzyme (10 µL) was added to each plate well (containing 40 µL of buffers) for the assays chymotrypsin-, trypsin-, and elastase-like proteinases. Stock substrates of BAρNA (100 mg/mL in DMSO), SAAPFρNA (100 mg/mL in DMF), and SAAPLρNA (100 mg/mL in DMF) were diluted to 1.0 mg/mL with an assay buffer. The total volume of the substrate was 50 µL. The reaction mixture was immediately incubated at 37 °C for 15 min and then stopped with 50 µL 30% acetic acid. Nitroaniline was measured at 405 nm using an ELISA plate reader. An assay mixture with a denaturation enzyme instead of a live enzyme was used as the blank well. Specific proteinase activities were expressed in OD/min mg protein in triplicate (for three substrates).
as §1, §2

Test [3] addresses trypsin-like serine proteinase of R. ferrugineus midgut. In words: Trypsin-like serine proteinase specific activity assay (BApNA) in 4th instar midgut homogenate. The note with it: for IC50 against trypsin-like serine proteinase: in vitro, midgut of 4th instar larvae; for Specific activity, Trypsin: control 4.10 ± 0.11. As to the method:
as §3, §4, §1, §2

The subject of test [4] is cysteine proteinase of R. ferrugineus midgut. In words: Cysteine proteinase specific activity assay (Z-Phe-Arg-MNA) in 4th instar midgut homogenate. The conditions noted are these: for Specific activity, Cysteine Protease: control 0.59 ± 0.05. As to the method: as §1, §2
For test [5], the system named is chymotrypsin-like serine proteinase of R. ferrugineus midgut. In words: Chymotrypsin-like serine proteinase specific activity assay (SAAPFpNA) in 4th instar midgut homogenate. The conditions noted are these: for Specific activity, Chymotrypsin: control 7.35 ± 0.02. As to the method:
as §3, §4, §1, §2

In the case of `CC(=O)N[C@@H](CC(C)C)C(=O)N[C@@H](CC(C)C)C(=O)N[C@H](C=O)CCCNC(=N)N` [Leupeptin, leupeptin], the “Specific activity, Total Proteases” value in test [1] (inhibitor 0.01 mM) was determined as 0.12 ± 0.05 OD/mg protein min; in test [1] (inhibitor 0.05 mM), 0.08 ± 0.05 OD/mg protein min; in test [1] (inhibitor 0.1 mM), 0.07 ± 0.05 OD/mg protein min; in test [1] (inhibitor 1 mM), 0.01 ± 0.05 OD/mg protein min.

With `O=S(=O)(F)Cc1ccccc1` [PMSF, phenymethanesulfonyl fluoride], the “Inhibition of midgut proteases (in words)” value in test [1] (purified proteases from midgut 4th larval instars) is recorded as “strongly inhibited”. The “Specific activity, Elastase” value in test [2] (inhibitor 0.1 mM) came out at 6.46 ± 0.01 OD/mg protein min; in test [2] (inhibitor 1 mM), 5.26 ± 0.03 OD/mg protein min; in test [2] (inhibitor 10 mM) it was 4.18 ± 0.03 OD/mg protein min; in test [2] (inhibitor 50 mM) it was 3.98 ± 0.0 OD/mg protein min.

Turning to `CC1=CCC(C(C)C)=CC1` [γ-terpinene], the “IC50 against total proteases” value in test [1] is reported as 137.3 µg/mL (≈ 1010 µM). For the same compound, the “IC50 against trypsin-like serine proteinase” value in test [3] turned out to be 105.7 µg/mL (≈ 776 µM). The IC50 against elastase in test [2] was found to be 163 µg/mL (≈ 1200 µM).

For the compound `Cc1ccc(C(C)C)cc1` [p-cymene], in test [1], the “IC50 against total proteases” value stood at 121.8 µg/mL (≈ 907 µM). Further, in test [3], the “IC50 against trypsin-like serine proteinase” value was 98.4 µg/mL (≈ 733 µM). In addition, in test [2], the IC50 against elastase was 169 µg/mL (≈ 1260 µM).

As for `O=C(O)CI` [Iodoacetic acid, iodoacetic acid], the “Inhibition of midgut instar proteases (in words)” value in test [4] (cysteine protease inhibitor) was “significantly inhibited”. Moreover, the “Specific activity, Cysteine Protease” value in test [4] (inhibitor 0.01 mM) was determined as 0.28 ± 0.04 OD/mg protein min; in test [4] (inhibitor 0.05 mM) it was 0.24 ± 0.05 OD/mg protein min; in test [4] (inhibitor 0.1 mM), 0.19 ± 0.04 OD/mg protein min; in test [4] (inhibitor 1 mM) it was 0.16 ± 0.05 OD/mg protein min.

On to `C=CC(C)(O)CCC=C(C)C` (stereo not shown) [linalool], for which the “IC50 against total proteases” value in test [1] is 197 µg/mL (≈ 1280 µM). In test [2], this compound registered an IC50 against elastase of 109.1 µg/mL (≈ 707 µM).

In the case of `C=CCc1ccc(O)c(OC)c1` [eugenol], the “IC50 against total proteases” value in test [1] worked out at 99.7 µg/mL (≈ 607 µM). Moreover, in test [3], the “IC50 against trypsin-like serine proteinase” value is 74.1 µg/mL (≈ 451 µM).

Consider `Cc1ccc(S(=O)(=O)N[C@@H](Cc2ccccc2)C(=O)CCl)cc1` [TPCK, N,alpha-tosyl-L-phenylalanine chloromethyl ketone], for which the “Inhibition of midgut instar proteases (in words)” value in test [5] (chymotrypsin-like serine proteinase inhibitor) was “significantly inhibited”. The “Specific activity, Chymotrypsin” value was 6.97 ± 0.03 OD/mg protein min in test [5] (inhibitor 0.01 mM); 6.40 ± 0.02 OD/mg protein min in test [5] (inhibitor 0.05 mM); 6.18 ± 0.02 OD/mg protein min in test [5] (inhibitor 0.1 mM); 5.28 ± 0.02 OD/mg protein min in test [5] (inhibitor 1 mM); 4.87 ± 0.02 OD/mg protein min in test [5] (inhibitor 10 mM); 3.64 ± 0.03 OD/mg protein min in test [5] (inhibitor 50 mM). Moreover, in test [5] (inhibitor 100 mM), the “Specific activity, Chymotrypsin” value is on record as 2.02 ± 0.02 OD/mg protein min.

For the compound `C=C(C)C1CCC(C)(O)CC1` (stereo not drawn) [β-terpineol], in test [1], the “IC50 against total proteases” value came out at 214 µg/mL (≈ 1390 µM).

Regarding `Cc1ccc(S(=O)(=O)N[C@@H](CCCCN)C(=O)CCl)cc1` [TLCK, N,p-tosyl-L-lysine chloromethyl ketone], the “Specific activity, Trypsin” value in test [3] (inhibitor 0.01 mM) is reported as 3.90 ± 0.11 OD/mg protein min; in test [3] (inhibitor 0.05 mM), 3.82 ± 0.1 OD/mg protein min; in test [3] (inhibitor 0.1 mM), 3.57 ± 0.1 OD/mg protein min; in test [3] (inhibitor 1 mM) it was 3.41 ± 0.09 OD/mg protein min; in test [3] (inhibitor 10 mM), 3.08 ± 0.1 OD/mg protein min; in test [3] (inhibitor 50 mM), 2.84 ± 0.09 OD/mg protein min. The “Specific activity, Trypsin” value in test [3] (inhibitor 100 mM) was found to be 2.12 ± 0.1 OD/mg protein min. In addition, the “Inhibition of midgut instar proteases (in words)” value in test [3] (trypsin-like serine proteinase inhibitor) is listed as “significantly inhibited”.

With `Cc1ccc(C(C)C)c(O)c1` [thymol], the “IC50 against total proteases” value in test [1] is on record as 189.7 µg/mL (≈ 1260 µM). The IC50 against elastase in test [2] is 195 µg/mL (≈ 1300 µM).

Regarding `CC12CCC(CC1)C(C)(C)O2` [1,8-cineole], the “IC50 against total proteases” value in test [1] came out at 92.1 µg/mL (≈ 597 µM). In addition, in test [3], the “IC50 against trypsin-like serine proteinase” value came out at 71.7 µg/mL (≈ 465 µM). Besides, the IC50 against elastase in test [2] is 116 µg/mL (≈ 752 µM).
